Results published in publication PMC4589331, “Interactions of L-3,5,3'-Triiodothyronine, Allopregnanolone, and Ivermectin with the GABAA Receptor: Evidence for Overlapping Intersubunit Binding Modes” (PLoS ONE, 2015).

Assays:
α1β1γ2 GABAA receptor = target: T1, α1β1γ2 GABAA receptor (Homo sapiens, UniProt P14867+P18505+P18507); test: Two-electrode voltage-clamp recording of GABAA receptors expressed in Xenopus oocytes; format: cell-based
T1 construct: GeneCopoeia (γ2 cDNA); host or cells: Xenopus laevis oocytes injected with cRNAs, ratio α1:β1:γ2 1:1:2
Protocol: The cDNAs encoding human GABAA receptor α1 and β1 subunits were acquired from American Type Culture Collection (ATCC, Manassas, Virginia), while those encoding γ2 subunits were acquired from GeneCopoeia (Rockville, Maryland). Restriction enzymes for the cDNAs came from New England Biolabs (Ipswich, MA).
HindIII-digested and XholI-digested DNA templates encoding human α1, β1, or γ2 GABAA receptor subunits (4 μg) were transcribed through the mMESSAGE mMACHINE T7 kit from Ambion (Austin, TX). […] The solution was then treated with RNase-free DNase I and precipitated with lithium chloride. The cRNAs were dissolved in double-distilled diethyl-pyrocarbonate (DEPC) treated water to a final concentration of ~ 1–2 μg/ μL. Subunit combinations were aliquoted for the specific receptor type with total concentration remaining ~ 1–2 μg/ μL.
(§1) X. laevis were anesthetized by placing them in solution of 1 g tricaine methanesulfonate (MS222) per 500 mL in de-chlorinated water. A small incision in the abdomen was made 1 cm away from and parallel to the midline and lobes of ovary were removed. The lobes were gently agitated at room temperature with collagenase (2 mg/mL) in calcium free OR-2 (82.5 mM NaCl, 2.5 mM KCl, 1 mM MgCl2, 5 mM HEPES, pH adjusted to 7.6 with NaOH) until the ovarian epithelium and the follicular cell layer were removed (~2 hrs). Oocytes were checked for proper size and shape, color, and for the presence of distinct animal and vegetal poles. Viable oocytes were placed in ND96 solution (96 mM NaCl, 2mM KCl, 1 mM MgCl2, 1 mM CaCl2, 5 mM HEPES, pH adjusted to 7.6 with NaOH) and the oocytes were injected with 46 nL cRNAs (1–2 μg/μL) expressing the α1β1γ2 construct using a digital microdispenser (Drummond ‘Nanoject II’), with the ratio α1: β1: γ2 1:1:2. […] Injected oocytes were incubated at 18°C in a sterile solution containing Leibovitz L-15 Medium supplemented with 10 mM HEPES, 50 mg/L gentamicin and 50 mg/L tetracycline at pH 7.4.
After 24 h following injections, oocytes were placed in a recording chamber perfused continuously with ND96. All drugs were perfused into the chamber through a gravity flow system (~5 mL/min). Oocytes were impaled with two 3 M KCl-filled glass microelectrodes (~ 1–2 MΩ). Oocytes were then voltage-clamped at -60 mV with a Model OC-725C Oocyte Clamp (Warner Instruments, Hamden, CT). Currents were recorded using the iWorx LabScribe v1.959 software. The peak amplitudes of the responses were used for data analysis.
Oocytes were perfused with ND96 between trials until current returned to baseline (approximately 10–15 minutes).
Graph Pad Prism, version 5.00 (La Jolla, CA), was used for all statistical analysis of two-electrode voltage-clamp data and for fitting the curves by nonlinear regression for determinations of EC50/IC50, min and max response values, and Hill coefficients. To determine the type of competition, a Schild plot analysis was applied to the competitive binding data, utilizing a linear regression fit.

uninjected oocytes = test: Two-electrode voltage-clamp recording of uninjected oocytes; format: cell-based, Xenopus laevis; details: data not shown
Protocol: as §1
After 24 h following injections, oocytes were placed in a recording chamber perfused continuously with ND96. All drugs were perfused into the chamber through a gravity flow system (~5 mL/min). […] Currents were recorded using the iWorx LabScribe v1.959 software. […]

T1 sequence (P14867 28-456): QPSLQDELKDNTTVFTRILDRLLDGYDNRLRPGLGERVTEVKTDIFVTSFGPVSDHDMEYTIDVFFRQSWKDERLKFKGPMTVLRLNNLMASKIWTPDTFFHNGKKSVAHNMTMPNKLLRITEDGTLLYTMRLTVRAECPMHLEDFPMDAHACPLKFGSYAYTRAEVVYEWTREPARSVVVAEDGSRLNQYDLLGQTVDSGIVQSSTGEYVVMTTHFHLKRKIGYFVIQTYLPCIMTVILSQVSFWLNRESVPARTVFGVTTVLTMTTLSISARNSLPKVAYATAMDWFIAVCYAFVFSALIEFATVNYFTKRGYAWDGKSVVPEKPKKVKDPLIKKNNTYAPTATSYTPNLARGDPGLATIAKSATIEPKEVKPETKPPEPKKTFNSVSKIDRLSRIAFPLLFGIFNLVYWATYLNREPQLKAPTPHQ
T1 sequence (P18505 26-474): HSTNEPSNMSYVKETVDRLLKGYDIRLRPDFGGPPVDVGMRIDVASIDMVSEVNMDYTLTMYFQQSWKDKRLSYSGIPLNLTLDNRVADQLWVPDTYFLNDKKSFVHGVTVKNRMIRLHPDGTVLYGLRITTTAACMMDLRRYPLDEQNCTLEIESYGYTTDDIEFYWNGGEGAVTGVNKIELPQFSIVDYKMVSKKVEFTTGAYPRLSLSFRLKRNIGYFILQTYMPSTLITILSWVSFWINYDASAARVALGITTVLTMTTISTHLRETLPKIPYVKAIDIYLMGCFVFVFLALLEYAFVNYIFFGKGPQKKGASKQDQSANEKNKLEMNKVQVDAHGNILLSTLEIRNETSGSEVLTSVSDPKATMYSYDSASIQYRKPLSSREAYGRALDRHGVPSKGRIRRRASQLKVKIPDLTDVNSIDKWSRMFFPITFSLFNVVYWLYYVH
T1 sequence (P18507 40-475): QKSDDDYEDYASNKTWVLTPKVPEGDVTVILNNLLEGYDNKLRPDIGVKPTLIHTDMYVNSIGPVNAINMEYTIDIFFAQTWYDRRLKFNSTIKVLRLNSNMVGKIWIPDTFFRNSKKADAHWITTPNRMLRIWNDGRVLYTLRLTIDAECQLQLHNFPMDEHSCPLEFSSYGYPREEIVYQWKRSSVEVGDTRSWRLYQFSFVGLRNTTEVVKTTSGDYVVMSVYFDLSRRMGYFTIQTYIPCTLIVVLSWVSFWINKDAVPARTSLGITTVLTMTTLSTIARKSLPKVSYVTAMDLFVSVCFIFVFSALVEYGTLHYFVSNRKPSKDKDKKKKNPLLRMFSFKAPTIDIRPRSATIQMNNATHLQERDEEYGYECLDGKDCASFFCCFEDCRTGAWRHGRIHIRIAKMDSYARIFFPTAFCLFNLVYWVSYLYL

Row | SMILES | EC50 (α1β1γ2 GABAA receptor) | Hill coefficient of activation by IVM (α1β1γ2 GABAA receptor; absence of GABA) | concentration of apparent maximal effect of IVM (α1β1γ2 GABAA receptor; absence of GABA) | effect of IVM on uninjected oocytes (uninjected oocytes) | effect on GABA response (check of γ subunit incorporation) (α1β1γ2 GABAA receptor; oocytes injected with α1:β1:γ2 1:1:2)
1 | CC(=O)[C@H]1CC[C@H]2[C@@H]3CC[C@H]4C[C@H](O)CC[C@]4(C)[C@H]3CC[C@]12C [ALLOP, 3α-hydroxy-5α-pregnan-20-one] | 0.9 ± 0.1 µM |  |  |  | 
2 | CCC(C)C1OC2(CCC1C)CC1CC(CC=C(C)C(OC3CC(OC)C(OC4CC(OC)C(O)C(C)O4)C(C)O3)C(C)C=CC=C3COC4C(O)C(C)=CC(C(=O)O1)C34O)O2 (stereo not drawn) [IVM, ivermectin] | 7.1 ± 0.8 µM | 1.9 ± 0.4 | 20 to 50 µM | unaffected | 
3 | CN1C(=O)CN=C(c2ccccc2)c2cc(Cl)ccc21 [diazepam] |  |  |  |  | potentiation
